Experimental data published in patent publication US8604042B2, “Bi-aryl meta-pyrimidine inhibitors of kinases” (TargeGen, Inc., priority 2005, dated 2013).
Where a name gives a salt, the structure may show the parent alone.

These compounds were tested against T1, recombinant JAK2 (Homo sapiens, UniProt O60674) (assay: IC50 value determinations for Jak2 kinase, luminescence-based kinase assay (Kinase-Glo)). Settings: Table 1.
T1 construct: purchased Upstate Cell Signaling Solutions
Format: biochemical

T1 sequence (O60674 808-1132 limits assumed): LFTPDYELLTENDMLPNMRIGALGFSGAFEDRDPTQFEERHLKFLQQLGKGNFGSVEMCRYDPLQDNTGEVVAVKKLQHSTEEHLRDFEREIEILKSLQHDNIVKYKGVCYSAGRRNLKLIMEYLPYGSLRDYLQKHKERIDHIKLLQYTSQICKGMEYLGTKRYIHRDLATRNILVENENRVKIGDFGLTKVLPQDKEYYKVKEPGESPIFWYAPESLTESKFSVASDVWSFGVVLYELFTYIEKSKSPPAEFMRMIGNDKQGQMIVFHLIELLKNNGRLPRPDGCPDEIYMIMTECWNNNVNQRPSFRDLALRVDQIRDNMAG

| IC50 | Structure (SMILES) |
| --- | --- |
| 33.8 nM | Cc1cnc(Nc2ccc(N3CCN(C)CC3)cc2)nc1Nc1cccc(-n2cccc2)c1 [N4-(3-(1H-pyrrol-1-yl)phenyl)-5-methyl-N2-(4-(4-methylpiperazin-1-yl)phenyl)pyrimidine-2,4-diamine] |
| 6.15 nM | COc1cc(Nc2nc(Nc3ccc(N4CCNCC4)cc3)ncc2C)ccc1Cl [drawing 348, N4-(4-Chloro-3-methoxy-phenyl)-5-methyl-N2-(4-piperazin-1-yl-phenyl)-pyrimidine-2,4-diamine] |
| 87.2 nM | Cc1cnc(Nc2ccc(OCCN3CCCC3)cc2)nc1Nc1ccc2c(c1)OCO2 [N4-Benzo[1,3]dioxol-5-yl-5-methyl-N2-[4-(2-pyrrolidin-1-yl-ethoxy)-phenyl]-pyrimidine-2,4-diamine trifluoroacetate] |
| 13.3 nM | COc1cc(Nc2nc(Nc3ccc(CN4CCOCC4)cc3)ncc2C)ccc1Cl [N4-(4-Chloro-3-methoxy-phenyl)-5-methyl-N2-(4-morpholin-4-ylmethyl-phenyl)-pyrimidine-2,4-diamine trifluoroacetate] |
| 7.06 nM | Cc1cnc(Nc2cccc(CN3CCOCC3)c2)nc1Nc1cccc(S(=O)(=O)NC(C)(C)C)c1 [N-tert-Butyl-3-(5-methyl-2-(3-morpholin-4-ylmethyl-phenylamino)-pyrimidin-4-ylamino]-benzenesulfonamide] |
| 7.3 nM | Cc1cnc(Nc2ccc(OC3CCNCC3)cc2)nc1Nc1cccc(S(=O)(=O)NC(C)(C)C)c1 [N-tert-Butyl-3-(5-methyl-2-[4-(piperidin-4-yloxy)-phenylamino]-pyrimidin-4-ylamino}-benzenesulfonamide] |
| 40.5 nM | Cc1cnc(Nc2cccc(N3CCN(CCO)CC3)c2)nc1Nc1cccc(S(=O)(=O)NC(C)(C)C)c1 [N-tert-Butyl-3-(2-{3-[4-(2-hydroxy-ethyl)-piperazin-1-yl]-phenylamino}-[5-methyl-pyrimidin-4-ylamino]-benzenesulfonamide Hydrochloride] |
| 35.7 nM | Cc1ccc(Nc2nc(Nc3ccc(OCCN4CCCC4)cc3)ncc2C)cc1 [N2-(4-(2-(pyrrolidin-1-yl)ethoxy)phenyl)-5-methyl-N4-p-tolylpyrimidine-2,4-diamine Hydrochloride] |
| 4.6 nM | Cc1cnc(Nc2ccc(CN3CCNCC3)cc2)nc1Nc1cccc(S(=O)(=O)NC(C)(C)C)c1 [N-tert-butyl-3-[(5-methyl-2-{[4-(piperazin-1-ylmethyl)phenyl]amino}pyrimidin-4-yl)amino]benzenesulfonamide] |
| 18.2 nM | Cc1cnc(Nc2ccc(OCCN3CCCC3)cc2)nc1Nc1ccc(Cl)cc1 [N4-(4-Chloro-phenyl)-5-methyl-N2-[4-(2-pyrrolidin-1-yl-ethoxy)-phenyl]-pyrimidine-2,4-diamine trifluoroacetate] |
| 18 nM | Cc1cnc(Nc2cccc(N3CCNCC3)c2)nc1Nc1cccc(S(=O)(=O)NC(C)(C)C)c1 [N-tert-Butyl-3-[5-methyl-2-(3-piperazin-1-yl-phenylamino)-pyrimidin-4-ylamino]-benzenesulfonamide Hydrochloride] |
| 16 nM | Cc1cnc(Nc2ccc(N3CCN(C)CC3)cc2)nc1Nc1cccc(C)c1C [5-methyl-N4-(2,3-dimethylphenyl)-N2-(4-(4-methylpiperazin-1-yl)phenyl)pyrimidine-2,4-diamine Hydrochloride] |
| 32.9 nM | Cc1cnc(Nc2ccc(C(=O)N3CCOCC3)cc2)nc1Nc1cccc(S(=O)(=O)NC(C)(C)C)c1 [N-tert-Butyl-3-{5-methyl-2-[4-(morpholine-4-carbonyl)-phenylamino]-pyrimidin-4-ylamino}-benzenesulfonamide] |
| 12.4 nM | Cc1cc(Nc2nc(Nc3ccc(OCCN4CCCC4)cc3)ncc2C)ccc1Cl [N2-(4-(2-(pyrrolidin-1-yl)ethoxy)phenyl)-N4-(4-chloro-3-methylphenyl)-5-methylpyrimidine-2,4-diamine Hydrochloride] |
| 35.4 nM | Cc1cnc(Nc2ccc(Cn3cncn3)cc2)nc1Nc1cccc(S(=O)(=O)NC(C)(C)C)c1 [N-tert-Butyl-3-[5-methyl-2-(4-[1,2,4]triazol-1-ylmethyl-phenylamino)-pyrimidin-4-ylamino]-benzenesulfonamide] |
| 16.4 nM | COC(=O)c1cc(Nc2ncc(C)c(Nc3cccc4c3OCO4)n2)ccc1OCCN1CCCC1 [5-[4-(Benzo[1,3]dioxol-4-ylamino)-5-methyl-pyrimidin-2-ylamino]-2-(2-pyrrolidin-1-yl-ethoxy)-benzoic acid methyl ester] |
| 34.3 nM | Cc1cnc(Nc2ccc(-n3ccnc3C)cc2)nc1Nc1cccc(S(=O)(=O)NC(C)(C)C)c1 [N-tert-Butyl-3-{5-methyl-2-[4-(2-methyl-imidazol-1-yl)-phenylamino]-pyrimidin-4-ylamino}-benzenesulfonamide] |
| 16.1 nM | CNS(=O)(=O)c1cccc(Nc2nc(Nc3ccc(N4CCN(C)CC4)cc3)ncc2C)c1 [N-Methyl-3-{5-methyl-2-[4-(4-methyl-piperazin-1-yl)-phenylamino]-pyrimidin-4-ylamino}-benzenesulfonamide] |

| IC50 | Structure (SMILES) |
| --- | --- |
| 5.36 nM | Cc1cnc(Nc2ccc(N3CCN(C)CC3)cc2)nc1Nc1ccc(Cl)c2[nH]ccc12 [drawing 356, N4-(7-chloro-1H-indol-4-yl)-5-methyl-N2-(4-(4-methylpiperazin-1-yl)phenyl)pyrimidine-2,4-diamine] |
| 7.09 nM | Cc1cnc(Nc2ccc(N3CCN(CCO)CC3)cc2)nc1Nc1cccc(S(=O)(=O)NC(C)(C)C)c1 [N-tert-Butyl-3-(2-{4-[4-(2-hydroxy-ethyl)-piperazin-1-yl]-phenylamino)-[5-methyl-pyrimidin-4-ylamino]-benzenesulfonamide Hydrochloride] |
| 137 nM | CC(=O)Nc1cccc(Nc2nc(Nc3ccc(OC4CCNCC4)cc3)ncc2C)c1 [N-(3-{5-Methyl-2-[4-(piperidin-4-yloxy)-phenylamino]-pyrimidin-4-ylamino}-phenyl)-acetamide] |
| 19.9 nM | Cc1cnc(Nc2ccc(C(C)N3CCOCC3)cc2)nc1Nc1cccc(C(C)(C)C)c1 (stereo not shown) [N4-(3-tert-butylphenyl)-5-methyl-N2-(4-(1-morpholinoethyl)-phenyl)pyrimidine-2,4-diamine Hydrochloride] |
| 20.8 nM | Cc1cnc(Nc2ccc(OCCN3CCCC3)cc2)nc1Nc1cccc(Cl)c1 [N4-(3-Chloro-phenyl)-5-methyl-N2-[4-(2-pyrrolidin-1-yl-ethoxy)-phenyl]-pyrimidine-2,4-diamine] |
| 13.6 nM | Cc1cnc(Nc2ccc(N3CCN(C)CC3)cc2)nc1Nc1cccc(S(N)(=O)=O)c1 [3-{5-Methyl-2-[4-(4-methyl-piperazin-1-yl)-phenylamino]-pyrimidin-4-ylamino}-benzenesulfonamide] |
| 18.6 nM | Cc1cnc(Nc2ccc(Cn3cccn3)cc2)nc1Nc1cccc(S(=O)(=O)NC(C)(C)C)c1 [N-tert-Butyl-3-[5-methyl-2-(4-pyrazol-1-ylmethyl-phenylamino)-pyrimidin-4-ylamino]-benzenesulfonamide] |
| 18.9 nM | COc1cc(Nc2nc(Nc3ccc(Cn4cccn4)cc3)ncc2C)ccc1Cl [N4-(4-Chloro-3-methoxy-phenyl)-5-methyl-N2-(4-pyrazol-1-ylmethyl-phenyl)-pyrimidine-2,4-diamine] |
| 18.8 nM | Cc1cnc(Nc2ccc(N3CCN(C)CC3)cc2)nc1Nc1cccc(S(=O)(=O)N2C(C)CCC2C)c1 (stereo not shown) [N4-[3-(2,5-Dimethyl-pyrrolidine-1-sulfonyl)-phenyl]-5-methyl-N2-[4-(4-methyl-piperazin-1-yl)-phenyl]-pyrimidine-2,4-diamine Hydrochloride] |
| 4.14 nM | COc1cc(Nc2nc(Nc3ccc(OC4CCNCC4)cc3)ncc2C)ccc1Cl [drawing 349, N4-(4-Chloro-3-methoxy-phenyl)-5-methyl-N2-[4-(piperidin-4-yloxy)-phenyl]-pyrimidine-2,4-diamine] |
| 87.1 nM | Cc1cnc(Nc2ccc(N3CCN(C)CC3)cc2)nc1Nc1cccc(C(F)(F)F)c1C [N4-(3-(trifluoromethyl)-2-methylphenyl)-5-methyl-N2-(4-(4-methylpiperazin-1-yl)phenyl)pyrimidine-2,4-diamine hydrochloride] |
| 35.7 nM | CC(=O)N1CCN(c2ccc(Nc3ncc(C)c(Nc4cccc(S(=O)(=O)NC(C)(C)C)c4)n3)cc2C(F)(F)F)CC1 [3-[(2-{[4-(4-acetylpiperazin-1-yl)-3-(trifluoromethyl)phenyl]amino}-5-methylpyrimidin-4-yl)amino]-N-tert-butylbenzenesulfonamide] |
| 52.8 nM | COc1cccc(Nc2nc(Nc3ccc(OCCN4CCCC4)cc3)ncc2C)c1 [drawing 301, N2-(4-(2-(pyrrolidin-1-yl)ethoxy)phenyl)-N4-(3-methoxyphenyl)-5-methylpyrimidine-2,4-diamine Hydrochloride] |
| 9740 nM | O=S(=O)(NCCN1CCCC1)c1ccc(Nc2nccc(Nc3ccc(O)cc3)n2)cc1 [4-[4-(4-Hydroxy-phenylamino)-pyrimidin-2-ylamino]-N-(2-pyrrolidin-1-yl-ethyl)-benzenesulfonamide] |
| 29.8 nM | Cc1cnc(Nc2ccc(CN3CCN(C)CC3)cc2)nc1Nc1cccc(S(=O)(=O)NC(C)(C)C)c1 |
| 9.53 nM | Cc1cnc(Nc2ccc(N3CCN(C)CC3)cc2)nc1Nc1cccc2[nH]ccc12 [N4-(1H-indol-4-yl)-5-methyl-N2-(4-(4-methylpiperazin-1-yl)phenyl)pyrimidine-2,4-diamine Hydrochloride] |
| 24.8 nM | Cc1cnc(Nc2ccc(N3CCN(C)CC3)cc2)nc1Nc1cccc(S(=O)(=O)N2CCCCC2)c1 [5-Methyl-N2-[4-(4-methyl-piperazin-1-yl)-phenyl]-N4-[3-(piperidine-1-sulfony)-phenyl]-pyrimidine-2,4-diamine Hydrochloride] |
| 33.5 nM | Cc1cnc(Nc2ccc(C(=O)N3CCCC3)cc2)nc1Nc1cccc(S(=O)(=O)NC(C)(C)C)c1 [N-tert-Butyl-3-{5-methyl-2-[4-(pyrrolidine-1-carbonyl)-phenylamino]-pyrimidin-4-ylamino}-benzenesulfonamide] |

Same assay, conditions: Table 5, Initial Screening Hits for JAK2

| IC50 | Structure (SMILES) |
| --- | --- |
| 2040 nM | COc1cc(Nc2nc(Nc3cccc(OCCN4CCCC4)c3)ncc2C)c(Cl)cc1Cl [Compound 3] |

Same assay, conditions: Table 6

| IC50 | Structure (SMILES) |
| --- | --- |
| 8 nM | COc1cc(Nc2nc(Nc3ccc(OCCN4CCCC4)cc3)ncc2C)ccc1Cl [Compound 6] |
| 105 nM | COc1cccc(Nc2ccnc(Nc3ccc(OCCN4CCCC4)cc3)n2)c1 [Compound 4] |

Same assay, conditions: Table 7, SAR for the P3 region

| IC50 | Structure (SMILES) |
| --- | --- |
| 8 nM | COc1cc(Nc2nc(Nc3ccc(OCCN4CCCC4)cc3)ncc2C)ccc1Cl [Compound 6] |
| 105 nM | COc1cccc(Nc2ccnc(Nc3ccc(OCCN4CCCC4)cc3)n2)c1 [Compound 4] |
| 2040 nM | COc1cc(Nc2nc(Nc3cccc(OCCN4CCCC4)c3)ncc2C)c(Cl)cc1Cl [Compound 3] |

Same assay, conditions: Table 8, SAR of the P4 region

| IC50 | Structure (SMILES) |
| --- | --- |
| 105 nM | COc1cccc(Nc2ccnc(Nc3ccc(OCCN4CCCC4)cc3)n2)c1 [Compound 4] |
